Data: patent US7582660B2, “2-thio-substituted imidazole derivatives and their use in pharmaceutics” (c-a-i-r biosciences GmbH, priority 2002, dated 2009)

What was measured:
IL-1β [1] = test: In vitro test with human whole blood, LPS-stimulated IL-1β release (ELISA); assay type: cell-based; conditions: read-out: K50 (μM) Whole blood IL-1β
Method: (§1) They may be administered in one individual dose or in a plurality of doses. The activity spectrum of the compounds as inhibitors of cytokine release was examined using the test systems below, as described by C. Donat and S. Laufer in Arch. Pharm. Pharm. […] 1, 1-40. 2000.
(§2) In Vitro Test with Human Whole Blood
(§3) The reaction is stopped by placing the samples on ice, adding DPBS buffer and then centrifuging at 1000 g for 15 min. The amount of IL-1β and TNFα in the plasma supernatant is then determined by ELISA.

p 38 = p 38 (Homo sapiens, UniProt Q16539); test: Kinase assay (activated p38a, ATF2 substrate, ELISA readout); assay type: biochemical; conditions: ATF2, 100 μM ATP
Chain of p 38 (Q16539 whole entry): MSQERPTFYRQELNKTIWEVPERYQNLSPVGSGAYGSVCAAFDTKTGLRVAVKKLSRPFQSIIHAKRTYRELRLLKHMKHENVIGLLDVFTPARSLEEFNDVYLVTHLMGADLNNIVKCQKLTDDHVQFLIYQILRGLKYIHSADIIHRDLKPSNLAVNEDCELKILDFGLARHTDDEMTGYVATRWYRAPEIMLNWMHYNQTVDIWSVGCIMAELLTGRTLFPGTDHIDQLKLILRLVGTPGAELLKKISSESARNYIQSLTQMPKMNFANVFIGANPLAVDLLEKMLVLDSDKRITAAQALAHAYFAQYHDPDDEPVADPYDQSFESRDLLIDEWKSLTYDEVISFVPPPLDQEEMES
Method: The reaction is stopped by placing the samples on ice, adding DPBS buffer and then centrifuging at 15 880 g for 12 min. The amount of IL-1β and TNFα in the plasma supernatant is then determined by ELISA. 2) Kinase Assay • At 37° C., microtiter plates were coated for one hour with 50 μl of ATF2 solution (20 μg/ml). The plates were washed three times with water, and 50 μl of kinase mixture (50 mM tris-HCl, 10 mM MgCl2, 10 mM β-glycerol phosphate, 10 μg/ml of BSA, 1 mM DTT, 100 μM ATP, 100 μM Na3VO4, 10 ng of activated p38a) with or without inhibitor were added into the wells, and the plates were incubated at 37° C. for 1 hour. The plates were washed three times and then incubated with phosphorus-ATF-2 antibody for one hour. The plates were once more washed three times, and goat-antirabbit IgG labeled with alkaline phosphatase was added at 37° C. for one hour (to fix antibody-phosphorylated protein/substrate complex). The plates were washed three times, and the alkaline phosphatase/substrate solution (3 mM 4-NPP, 50 mM NaHCO3, 50 mM MgCl2, 100 μl/well) was added at 37° C. for 1.5 hours. […] The IC50 values were calculated.

TNF-α [2] = test: In vitro test with PBMCs, LPS-stimulated TNFα release (ELISA); assay type: cell-based; conditions: human PBMCs, LPS 4 hours, read-out: IC50 (μM) PBMCA TNF-α
IL-1β [3] = test: In vitro test with PBMCs, LPS-stimulated IL-1β release (ELISA); assay type: cell-based; conditions: human PBMCs, LPS 4 hours, read-out: IC50 (μM) PBMCA IL-1β
TNF-α [4] = test: In vitro test with human whole blood, LPS-stimulated TNFα release (ELISA); assay type: cell-based; conditions: 1 μg/ml LPS 4 hours, read-out: K50 (μM) Whole blood TNF-α
Method: as §1, §2, §3

[5] = human whole blood, 1 μg/ml LPS 4 hours

SMILES: CSc1nc(-c2ccc(F)cc2)c(-c2ccnc(NC(C)c3ccccc3)c2)[nH]1 (racemic) [Compound 25m, (RS)-{4-[5-(4-Fluorophenyl)-2-methylsulfanyl-3H-imidazol-4-yl]pyridin-2-yl}-(1-phenylethyl)amine]
- IC50 (IL-1β [1]; Homo sapiens, 4 h): 0.99 µM

SMILES: CC(Nc1cc(-c2[nH]c(SCc3ccccc3)nc2-c2ccc(F)cc2)ccn1)c1ccccc1 (racemic) [Compound 26d, (RS)-{4-[2-Benzylsulfanyl-S-(4-fluorophenyl)-3H-imidazol-4-yl]pyridin-2-yl}-(1-phenylethyl)amine]
- IC50 (p 38): 0.38 µM
- IC50 (TNF-α [2]; PBMC): 2.7 µM
- IC50 (IL-1β [3]; PBMC): 0.045 µM

SMILES: CC(Nc1cc(-c2[nH]c(SCc3ccc([S+](C)[O-])cc3)nc2-c2ccc(F)cc2)ccn1)c1ccccc1 (racemic) [Compound 27d, (RS)-{4-[5-(4-Fluorophenyl)-2-(4-methanesulfinylbenzylsulfanyl)-3H-imidazol-4-yl]pyridin-2-yl}-(1-phenylethyl)amine]
- IC50 (TNF-α [4]): 10 µM
- IC50 (p 38): 0.27 µM
- IC50 (IL-1β [1]; [5]): 15.7 µM
- IC50 (TNF-α [2]; PBMC): 0.91 µM
- IC50 (IL-1β [3]; PBMC): 0.04 µM

SMILES: CSc1nc(-c2ccc(F)cc2)c(-c2ccnc(Cl)c2)[nH]1 [Compound 25a, 2-Chloro-4-[5-(4-fluorophenyl)-2-methylsulfanyl-3H-imidazol-4-yl]pyridine]
- IC50 (TNF-α [2]; PBMC): 2.2 µM
- IC50 (IL-1β [3]; PBMC): 0.35 µM

SMILES: CSc1nc(-c2ccc(F)cc2)c(-c2ccnc(F)c2)[nH]1 [Compound 25b, 2-Fluoro-4-[5-(4-fluorophenyl)-2-methylsulfanyl-3H-imidazol-4-yl]pyridine]
- IC50 (p 38): 3.8 µM
- IC50 (TNF-α [2]; PBMC): 2.8 µM
- IC50 (IL-1β [3]; PBMC): 0.3 µM

SMILES: CSc1nc(-c2ccc(F)cc2)c(-c2ccnc(OC(C)C)c2)[nH]1 [Compound 25c, 4-[5-(4-Fluorophenyl)-2-methylsulfanyl-3H-imidazol-4-yl]-2-isopropoxypyridin]
- IC50 (TNF-α [4]): 7.2 µM
- IC50 (p 38): 8.7 µM
- IC50 (IL-1β [1]; [5]): 2.2 µM
- IC50 (TNF-α [2]; PBMC): 4.6 µM
- IC50 (IL-1β [3]; PBMC): 2.7 µM

SMILES: COc1cc(-c2[nH]c(SC)nc2-c2ccc(F)cc2)ccn1 [Compound 25d, 4-[5-(4-Fluorophenyl)-2-methylsulfanyl-3H-imidazol-4-yl]-2-methoxypyridine]
- IC50 (TNF-α [2]; PBMC): 1.9 µM
- IC50 (IL-1β [3]; PBMC): 0.15 µM

SMILES: CSc1nc(-c2ccc(F)cc2)c(-c2cc[nH]c(=O)c2)[nH]1 [Compound 25e, 4-[5-(4-Fluorophenyl)-2-methylsulfanyl-3H-imidazol-4-yl]-1H-pyridin-2-one]
- IC50 (TNF-α [2]; PBMC): 3.1 µM
- IC50 (IL-1β [3]; PBMC): 0.5 µM

SMILES: CSc1nc(-c2ccc(F)cc2)c(-c2ccnc(NCc3ccccc3)c2)[nH]1 [Compound 25f, Benzyl{4-[S-(4-fluorophenyl)-2-methylsulfanyl-3H-imidazol-4-yl]pyridin-2-yl}-amine]
- IC50 (p 38): 0.65 µM
- IC50 (TNF-α [2]): 0.63 µM
- IC50 (IL-1β [3]): 0.108 µM

SMILES: COc1ccc(CNc2cc(-c3[nH]c(SC)nc3-c3ccc(F)cc3)ccn2)cc1 [Compound 25g, {4-[5-(4-Fluorophenyl)-2-methylsulfanyl-3H-imidazol-4-yl]pyridin-2-yl}-(4-methoxybenzyl)amine]
- IC50 (p 38): 0.79 µM
- IC50 (TNF-α [2]; PBMC): 0.64 µM
- IC50 (IL-1β [3]; PBMC): 0.056 µM

SMILES: CSc1nc(-c2ccc(F)cc2)c(-c2ccnc(NCc3ccc(C)cc3)c2)[nH]1 [Compound 25h, {4-[5-(4-Fluorophenyl)-2-methylsulfanyl-3H-imidazol-4-yl]pyridin-2-yl}-(4-methylbenzyl)amine]
- IC50 (TNF-α [4]): 17.3 µM
- IC50 (p 38): 0.83 µM
- IC50 (IL-1β [1]; [5]): 22.3 µM
- IC50 (TNF-α [2]; PBMC): 0.67 µM
- IC50 (IL-1β [3]; PBMC): 0.085 µM

SMILES: CSc1nc(-c2ccc(F)cc2)c(-c2ccnc(NCc3ccc(Cl)cc3)c2)[nH]1 [Compound 25i, (4-Chlorobenzyl)-{4-[5-(4-fluorophenyl)-2-methylsulfanyl-3H-imidazol-4-yl]-pyridin-2-yl}amine]
- IC50 (TNF-α [4]): 14.8 µM
- IC50 (p 38): 0.95 µM
- IC50 (IL-1β [1]; [5]): 13.3 µM
- IC50 (TNF-α [2]; PBMC): 0.5 µM
- IC50 (IL-1β [3]; PBMC): 0.15 µM

SMILES: CSc1nc(-c2ccc(F)cc2)c(-c2ccnc(NCc3ccc(Cl)c(Cl)c3)c2)[nH]1 [Compound 25j, (3,4-Dichlorobenzyl)-{4-[5-(4-fluorophenyl)-2-methylsulfanyl-3H-imidazol4-yl]-pyridin-2-yl}amine]
- IC50 (p 38): 0.7 µM
- IC50 (TNF-α [2]; PBMC): 0.72 µM
- IC50 (IL-1β [3]; PBMC): 0.23 µM

SMILES: CSc1nc(-c2ccc(F)cc2)c(-c2ccnc(Nc3ccccc3)c2)[nH]1 [Compound 25k, {4-[5-(4-Fluorophenyl)-2-methylsulfanyl-3H-imidazol-4-yl]pyridin-2-yl}-phenylamine]
- IC50 (p 38): 0.13 µM
- IC50 (TNF-α [2]; PBMC): 0.34 µM
- IC50 (IL-1β [3]; PBMC): 0.03 µM

SMILES: CSc1nc(-c2ccc(F)cc2)c(-c2ccnc(NCCc3ccccc3)c2)[nH]1 [Compound 25l, {4-[5-(4-Fluorophenyl)-2-methylsulfanyl-3H-imidazol4-yl]pyridin-2-yl}-phenethylamine]
- IC50 (TNF-α [4]): 14.9 µM
- IC50 (p 38): 0.24 µM
- IC50 (IL-1β [1]; [5]): 17.1 µM
- IC50 (TNF-α [2]; PBMC): 0.35 µM
- IC50 (IL-1β [3]; PBMC): 0.031 µM

SMILES: Fc1ccc(-c2nc(SCc3ccccc3)[nH]c2-c2ccnc(Cl)c2)cc1 [Compound 26a, 4-[2-Benzylsulfanyl-5-(4-fluorophenyl)-3H-imidazol-4-yl]-2-chloropyridine]
- IC50 (TNF-α [2]; PBMC): 60 µM
- IC50 (IL-1β [3]; PBMC): 1.8 µM

SMILES: Fc1ccc(-c2nc(SCc3ccccc3)[nH]c2-c2ccnc(F)c2)cc1 [Compound 26b, 4-[2-Benzylsulfanyl-5-(4-fluorophenyl)-3H-imidazol-4-yl]-2-fluoropyridine]
- IC50 (p 38): 4.2 µM
- IC50 (TNF-α [2]; PBMC): 40.5 µM
- IC50 (IL-1β [3]; PBMC): 2.9 µM

SMILES: Fc1ccc(-c2nc(SCc3ccccc3)[nH]c2-c2ccnc(NCc3ccccc3)c2)cc1 [Compound 26c, Benzyl-{4-[2-benzylsulfanyl-5-(4-fluorophenyl)-3H-imidazol-4-yl]pyridin-2-yl}-amine]
- IC50 (p 38): 1.42 µM
- IC50 (TNF-α [2]; PBMC): 3.2 µM
- IC50 (IL-1β [3]; PBMC): 0.2 µM

SMILES: COc1ccc(CNc2cc(-c3[nH]c(SCc4ccccc4)nc3-c3ccc(F)cc3)ccn2)cc1 [Compound 26e, {4-[2-Benzylsulfanyl-5-(4-fluorophenyl)-3H-imidazol-4-yl]pyridin-2-yl}-(4-methoxybenzyl)amine]
- IC50 (TNF-α [2]; PBMC): 21 µM
- IC50 (IL-1β [3]; PBMC): 0.18 µM

SMILES: C[S+]([O-])c1ccc(CSc2nc(-c3ccc(F)cc3)c(-c3ccnc(Cl)c3)[nH]2)cc1 (centres unmarked) [Compound 27a, 2-Chloro-4-[5-(4-fluorophenyl)-2-(4-methanesulfinylbenzylsulfanyl)-3H-imidazol-4-yl]pyridine]
- IC50 (TNF-α [2]; PBMC): 12 µM
- IC50 (IL-1β [3]; PBMC): 2.1 µM

SMILES: C[S+]([O-])c1ccc(CSc2nc(-c3ccc(F)cc3)c(-c3ccnc(F)c3)[nH]2)cc1 (centres unmarked) [Compound 27b, 2-Fluoro-4-[5-(4-fluorophenyl)-2-(4-methanesulfinylbenzylsulfanyl)-3H-imidazol-4-yl]pyridine]
- IC50 (p 38): 9.3 µM
- IC50 (TNF-α [2]; PBMC): 6.9 µM
- IC50 (IL-1β [3]; PBMC): 2.45 µM

SMILES: C[S+]([O-])c1ccc(CSc2nc(-c3ccc(F)cc3)c(-c3ccnc(NCc4ccccc4)c3)[nH]2)cc1 (centres unmarked) [Compound 27c, Benzyl-{4-[5-(4-fluorophenyl)-2-(4-methanesulfinylbenzylsulfanyl)-3H-imidazol-4-yl]pyridin-2-yl}amine]
- IC50 (p 38): 1.45 µM
- IC50 (TNF-α [2]; PBMC): 2 µM
- IC50 (IL-1β [3]; PBMC): 0.47 µM
